# Conditions: instrument: DT, single field, calibrated with Agilent tune mix (Agilent)
Structure (SMILES),collision cross section (N2) ([M+NH4]+),collision cross section (N2) ([M+H]+),collision cross section (N2) ([M-H]-),further results
CC/C=C\C/C=C\C/C=C\CCCCCCCC(=O)OC[C@H](COC(=O)CCCCCCCCCCC/C=C\C/C=C\CCCCC)OC(=O)CCCCCCCCC/C=C\CCCCCCCCCC [TG(62:6)],344.1 Å²,,,
CC/C=C\C/C=C\C/C=C\C/C=C\C/C=C\CCCCCC(=O)OC[C@@H](COC(=O)CCCC/C=C\C/C=C\C/C=C\C/C=C\CC)OC(=O)CCCCCC/C=C\C/C=C\C/C=C\CCCCC [TG(60:12)],331.7 Å²,,,
CCCCCCCCCCCCC=CC[C@@H](O)[C@H](CO)NC(=O)CC=CCCCCCCCCCCCCCCCCCCC [Cer(41:2)],,273.5 Å²,,collision cross section (N2) ([M+Na]+): 273.8 Å²
CCCCCCCCCCCCCCCC(=O)N[C@@H](CO)[C@H](O)CCCCCCCCCCCCCCC [Cer(34:0)],,,,collision cross section (N2) ([M+HCOO]-): 251.8 Å²
CCCC/C=C\CCCCCCCC(=O)OC[C@H](COP(=O)(O)O)OC(=O)CCCCCCCCCCCCCCCCCCCCC [PA(36:1)],277.7 Å²,,261.6 Å²,collision cross section (N2) ([M+Na]+): 275.6 Å²
CCCCCCCCCCCCC=CC[C@@H](O)[C@H](CO)NC(=O)CCCCCCCCCCCCCCC [Cer(34:1)],,253.6 Å²,,collision cross section (N2) ([M+HCOO]-): 250.4 Å²
CC/C=C\C/C=C\C/C=C\C/C=C\C/C=C\C/C=C\CCC(=O)OC[C@@H](COC(=O)CCCC/C=C\C/C=C\C/C=C\C/C=C\CC)OC(=O)CCCCCCCC/C=C\C/C=C\C/C=C\CCCCC [TG(62:13)],335.7 Å²,,,
CCCCCCCCCCCCCCCCC(=O)OC[C@@H](O)COP(=O)(O)OC[C@H](N)C(=O)O [LPS(17:0)],,,220.1 Å²,
CCCCCCCCCCCCCCCCCCCC(=O)O[C@H](COC(=O)CCCCCCCCCCC)COP(=O)(O)OCCN [PE(32:0)],,271.4 Å²,,
CCCCCCCCCC/C=C\CCCCCCCCCC(=O)O[C@H](COC(=O)CCCCCCCCCCCC)COP(=O)([O-])OCC[N+](C)(C)C [PC(35:1)],,289.2 Å²,,
CCCCCC/C=C\CCCCCCCCCCCC(=O)O[C@H](COC(=O)CCCCCCCCCCCCCCCCC)COP(=O)([O-])OCC[N+](C)(C)C [PC(38:1)],,298.8 Å²,,
CCCCCCCC/C=C\CCCCCCCC(=O)OC[C@@H](O)COP(=O)(O)OC[C@H](N)C(=O)O [LPS(18:1)],,224.2 Å²,220.5 Å²,collision cross section (N2) ([M+Na]+): 227 Å²
CCCCCCCCCCCCC=CC[C@@H](O)[C@H](CO)NC(=O)CCCCCCCCCCCCCCCCC [Cer(36:1)],,261.6 Å²,248.6 Å²,collision cross section (N2) ([M+HCOO]-): 257.6 Å²; collision cross section (N2) ([M+Na]+): 268.6 Å²
CCCCCCCCCC/C=C\CCCCCCCCCC(=O)OC[C@@H](O)COP(=O)(O)OC[C@H](N)C(=O)O [LPS(22:1)],,,234.2 Å²,
CCCCCCCCCCCCCCCCCCCCCC(=O)OC[C@H](COP(=O)(O)OCCN)OC(=O)CCCCCCCCCCC [PE(34:0)],,277.5 Å²,,
CC/C=C\C/C=C\C/C=C\C/C=C\C/C=C\C/C=C\CCC(=O)OC[C@@H](COC(=O)CCCCCCC/C=C\CCCCCCCCC)OC(=O)CCCCCCC/C=C\CCCCCCCCC [TG(60:8)],338.1 Å²,,,
CCCCC/C=C\C/C=C\CCCCCCCC(=O)OC[C@H](COC(=O)CCCCCCCCC/C=C\CCCCCCCCCC)OC(=O)CCCCCCCCC/C=C\CCCCCCCCCC [TG(62:4)],345.8 Å²,,,
CCCCC/C=C\C/C=C\CCCCCCCCCC(=O)OC[C@@H](O)COP(=O)([O-])OCC[N+](C)(C)C [LPC(20:2)],,233.9 Å²,,
CCCCCCCCCCCCCCCCCCCCCC(=O)N[C@@H](CO)[C@H](O)CCCCCCCCCCCCCCC [Cer(40:0)],,274.7 Å²,262.1 Å²,collision cross section (N2) ([M+HCOO]-): 272 Å²

# Reference: the C3SDB collision cross section collection
